Converted amounts (≈) assume the structure as drawn. Where two headings read alike, the source gives them in different places.
Assays:
Escherichia coli DC O = assay: Antibacterial activity, MIC by Agar dilution method, standard test strain 8; format: cell-based
Experimental: (§1) The antibacterial activity was determined by an Agar dilution method as described below.
(§2) That is, the two-fold serial dilutions of the antibacterial compounds (1000 μg compound/ml) were prepared and dispersed in Muller Hinton Agar in a petri dish to a concentration of 100~0.002 μg/ml. The culture broths of standard test strains were inoculated on the medium to a concentration 10^7 CFU/ml, and incubated at 37° C. for 18 hours. The concentration of compounds(I) at which the strains were not grown was regarded as minimum inhibition concentration (MIC).
(§3) The results of antibacterial activity test of the representative examples of the compound (I) against 20 standard test strains shown in terms of MIC were indicated in Table 1.

Salmonella typhimurium = assay: Antibacterial activity, MIC by Agar dilution method, standard test strain 16; format: cell-based; settings: Salmonella enterica, 10^7 CFU/ml, 37° C., 18 hours
Experimental: as §1, §2, §3
16. Salmonella typhimurium

[1] = tested on: Klebsiella aerogenes 1522E; assay: Antibacterial activity, MIC by Agar dilution method, standard test strain 18; format: cell-based; settings: Klebsiella aerogenes 1522E; 10^7 CFU/ml, 37° C., 18 hours; read-out: MIC
Experimental: as §1, §2, §3
18. Klebsiella aerogenes 1522E

[2] = tested on: Streptococcus pyogenes A 308; assay: Antibacterial activity, MIC by Agar dilution method, standard test strain 1; format: cell-based; settings: A308, 10^7 CFU/ml, 37° C., 18 hours
Experimental: as §1, §2, §3
1. Streptococcus pyogenes A 308

[3] = tested on: Gram-positive strains as well as Gram-negative strains including Pseudomonas; assay: Antibacterial activity (summary in words); format: cell-based; settings: Gram-positive and Gram-negative strains
Experimental: as §1, §2

[4] = tested on: Streptococcus faecium MD 86; assay: Antibacterial activity, MIC by Agar dilution method, standard test strain 3; format: cell-based; settings: Enterococcus faecium, MD86, 10^7 CFU/ml, 37° C., 18 hours
Experimental: as §1, §2, §3
3. Streptococcus faecium MD 86

Escherichia coli O 55 = assay: Antibacterial activity, MIC by Agar dilution method, standard test strain 7; format: cell-based
Experimental: as §1, §2, §3

[5] = tested on: Staphylococcus aureus SG 511; assay: Antibacterial activity, MIC by Agar dilution method, standard test strain 4; format: cell-based; settings: SG511, 10^7 CFU/ml, 37° C., 18 hours
Experimental: as §1, §2, §3
4. Staphylococcus aureus SG 511

[6] = tested on: Streptococcus pyogenes A 77; assay: Antibacterial activity, MIC by Agar dilution method, standard test strain 2; format: cell-based; settings: A77, 10^7 CFU/ml, 37° C., 18 hours
Experimental: as §1, §2, §3
2. Streptococcus pyogenes A 77

[7] = tested on: Staphylococcus aureus 503; assay: Antibacterial activity, MIC by Agar dilution method, standard test strain 6; format: cell-based; settings: 10^7 CFU/ml, 37° C., 18 hours
Experimental: as §1, §2, §3
6. Staphylococcus aureus 503

Escherichia coli TEM = assay: Antibacterial activity, MIC by Agar dilution method, standard test strain 10; format: cell-based; settings: Escherichia coli TEM; 10^7 CFU/ml, 37° C., 18 hours; read-out: MIC
Experimental: as §1, §2, §3

Escherichia coli 1507E = assay: Antibacterial activity, MIC by Agar dilution method, standard test strain 11; format: cell-based
Experimental: as §1, §2, §3

[8] = tested on: Pseudomonas aeruginosa 1592E; assay: Antibacterial activity, MIC by Agar dilution method, standard test strain 13; format: cell-based; settings: 10^7 CFU/ml, 37° C., 18 hours
Experimental: as §1, §2, §3
13. Pseudomonas aeruginosa 1592E

[9] = tested on: Enterobacter cloacae 1321E; assay: Antibacterial activity, MIC by Agar dilution method, standard test strain 20; format: cell-based; settings: Enterobacter cloacae 1321E; 10^7 CFU/ml, 37° C., 18 hours; read-out: MIC
Experimental: as §1, §2, §3
20. Enterobacter cloacae 1321E

Klebsiella oxytoca 1082E = assay: Antibacterial activity, MIC by Agar dilution method, standard test strain 17; format: cell-based; settings: 10^7 CFU/ml, 37° C., 18 hours
Experimental: as §1, §2, §3

Staphyloccus aureus 285 = assay: Antibacterial activity, MIC by Agar dilution method, standard test strain 5; format: cell-based; settings: 10^7 CFU/ml, 37° C., 18 hours
Experimental: as §1, §2, §3
5. Staphyloccus aureus 285

[10] = tested on: Pseudomonas aeruginosa 9027; assay: Antibacterial activity, MIC by Agar dilution method, standard test strain 12; format: cell-based; settings: 10^7 CFU/ml, 37° C., 18 hours
Experimental: as §1, §2, §3
12. Pseudomonas aeruginosa 9027

Enterobacter cloacae P99 = assay: Antibacterial activity, MIC by Agar dilution method, standard test strain 19; format: cell-based; settings: P99, 18 h
Experimental: as §1, §2, §3
19. Enterobacter cloacae P99

[11] = tested on: Pseudomonas aeruginosa 1771; assay: Antibacterial activity, MIC by Agar dilution method, standard test strain 14; format: cell-based; settings: 10^7 CFU/ml, 37° C., 18 hours
Experimental: as §1, §2, §3
14. Pseudomonas aeruginosa 1771

[12] = tested on: Pseudomonas aeruginosa 1771M; assay: Antibacterial activity, MIC by Agar dilution method, standard test strain 15; format: cell-based; settings: 18 h
Experimental: as §1, §2, §3
15. Pseudomonas aeruginosa 1771M

Escherichia coli DC 2 = assay: Antibacterial activity, MIC by Agar dilution method, standard test strain 9; format: cell-based; settings: DC2; Escherichia coli DC 2; 10^7 CFU/ml, 37° C., 18 hours; read-out: MIC
Experimental: as §1, §2, §3

Acute toxcity test = settings: in vivo, male ICR-mouse, after 1 week
Experimental: Further, in order to illustrate the usefulness of the compounds (I) as a drug, compounds of Examples 12, 18 and 36 were tested for acute toxcity by using 4 weeks-old male ICR-mouse as a test animal.
the compounds were dissolved in physiological saline and phosphate buffered solution (pH 7.0), or if they were […], suspended in carboxymethylcellulose or gum Arabic and then mixed with phosphate buffered solution.
The solution or mixture was administered to the tested animals intravenously or subcutaneously and, after 1 week, the number of surviving animals was calculated.

[13] = Escherichia coli DC O, 10^7 CFU/ml, 37° C., 18 hours, read-out: MIC
[14] = Escherichia coli 1507E, 10^7 CFU/ml, 37° C., 18 hours, read-out: MIC
[15] = O55, Escherichia coli O 55, 10^7 CFU/ml, 37° C., 18 hours, read-out: MIC

## CO/N=C(\C(=O)N[C@@H]1C(=O)N2C(C(=O)[O-])=C(C[N+]3(N)CCc4ccccc4C3)CS[C@H]12)c1csc(N)n1 (stereo partly drawn) [Example 5, (6R,7R)-7-[(Z)-2-(2-aminothiazol-4-yl)-2-methoxyiminoacetamido]-3-[(2-amino-1,2,3,4-tetrahydroisoquinolin-2-ium)methyl]-ceph-3-em-4-carboxylate]
Escherichia coli DC O; [13]
  MIC: 0.391 µg/mL (≈ 0.719 µM)
Salmonella typhimurium
  MIC: 0.781 µg/mL (≈ 1.44 µM)
[1]
  MIC: 0.013 µg/mL (≈ 0.0239 µM)
[2]
  MIC: 0.049 µg/mL (≈ 0.0901 µM)
[3]
  antibacterial activity (in words): excellent antibacterial activity
[4]
  MIC: 50 µg/mL (≈ 92 µM)
Escherichia coli O 55; Escherichia coli, O55, 18 h
  MIC: 0.391 µg/mL (≈ 0.719 µM)
[5]
  MIC: 1.56 µg/mL (≈ 2.88 µM)
[6]
  MIC: 0.013 µg/mL (≈ 0.0239 µM)
[7]
  MIC: 0.781 µg/mL (≈ 1.44 µM)
Escherichia coli TEM
  MIC: 0.781 µg/mL (≈ 1.44 µM)
Escherichia coli 1507E; [14]
  MIC: 0.781 µg/mL (≈ 1.44 µM)
[8]
  MIC: 50 µg/mL (≈ 92 µM)
[9]
  MIC: 0.013 µg/mL (≈ 0.0239 µM)
Klebsiella oxytoca 1082E
  MIC: 12.5 µg/mL (≈ 23 µM)
Staphyloccus aureus 285
  MIC: 6.25 µg/mL (≈ 11.5 µM)
[10]
  MIC: 50 µg/mL (≈ 92 µM)
Enterobacter cloacae P99
  MIC: 100 µg/mL (≈ 184 µM)
[11]
  MIC: 50 µg/mL (≈ 92 µM)
[12]
  MIC: 1.56 µg/mL (≈ 2.88 µM)
Escherichia coli DC 2
  MIC: 0.781 µg/mL (≈ 1.44 µM)

## CC(C)(O/N=C(\C(=O)N[C@@H]1C(=O)N2C(C(=O)[O-])=C(C[n+]3cn(N)cn3)CS[C@H]12)c1csc(N)n1)C(=O)O [Example 36, (6R,7R)-7-[(Z)-2-(2-aminothiazol-4-yl)-2-(2-carboxyprop-2-oxyimino)acetamido]-3-[(4-amino-1,2,4-triazol-2-ium)methyl]-ceph-3-em-4-carboxylate]
Escherichia coli DC O; [13]
  MIC: 0.781 µg/mL (≈ 1.42 µM)
Salmonella typhimurium
  MIC: 6.25 µg/mL (≈ 11.3 µM)
[1]
  MIC: 0.781 µg/mL (≈ 1.42 µM)
[2]
  MIC: 0.098 µg/mL (≈ 0.178 µM)
[3]
  antibacterial activity (in words): excellent antibacterial activity
[4]
  MIC: 25 µg/mL (≈ 45.3 µM)
Escherichia coli O 55; [15]
  MIC: 0.195 µg/mL (≈ 0.354 µM)
[5]
  MIC: 1.56 µg/mL (≈ 2.83 µM)
[6]
  MIC: 0.049 µg/mL (≈ 0.0888 µM)
[7]
  MIC: 1.56 µg/mL (≈ 2.83 µM)
Escherichia coli TEM
  MIC: 3.12 µg/mL (≈ 5.67 µM)
Escherichia coli 1507E; Escherichia coli, 1507E, 18 h
  MIC: 1.56 µg/mL (≈ 2.83 µM)
[8]
  MIC: 6.25 µg/mL (≈ 11.3 µM)
[9]
  MIC: 0.391 µg/mL (≈ 0.709 µM)
Klebsiella oxytoca 1082E
  MIC: 100 µg/mL (≈ 181 µM)
Staphyloccus aureus 285
  MIC: 3.12 µg/mL (≈ 5.67 µM)
[10]
  MIC: 6.25 µg/mL (≈ 11.3 µM)
Enterobacter cloacae P99
  MIC: 100 µg/mL (≈ 181 µM)
[11]
  MIC: 1.56 µg/mL (≈ 2.83 µM)
[12]
  MIC: 0.098 µg/mL (≈ 0.178 µM)
Acute toxcity test; sc, Subcutaneous administration
  LD50 at 168 h: > 6000 mg/kg
Acute toxcity test; Intravenous administration
  LD50 at 168 h: > 4000 mg/kg
Escherichia coli DC 2
  MIC: 0.195 µg/mL (≈ 0.354 µM)

## CO/N=C(\C(=O)N[C@@H]1C(=O)N2C(C(=O)[O-])=C(C[n+]3cn(N)c4ccccc43)CS[C@H]12)c1csc(N)n1 [Example 19, (6R,7R)-7-[(Z)-2-(2-aminothiazol-4-yl)-2-methoxyiminoacetamido]-3-[(1-aminobenzimidazol-3-ium)methyl]-ceph-3-em-4-carboxylate]
Escherichia coli DC O; [13]
  MIC: 0.391 µg/mL (≈ 0.74 µM)
Salmonella typhimurium
  MIC: 0.195 µg/mL (≈ 0.369 µM)
[1]
  MIC: 0.195 µg/mL (≈ 0.369 µM)
[2]
  MIC: 0.013 µg/mL (≈ 0.0246 µM)
[3]
  antibacterial activity (in words): excellent antibacterial activity
[4]
  MIC: > 100 µg/mL
Escherichia coli O 55; Escherichia coli, O55, 18 h
  MIC: 0.098 µg/mL (≈ 0.185 µM)
[5]
  MIC: 0.781 µg/mL (≈ 1.48 µM)
[6]
  MIC: 0.007 µg/mL (≈ 0.0132 µM)
[7]
  MIC: 0.391 µg/mL (≈ 0.74 µM)
Escherichia coli TEM
  MIC: 0.391 µg/mL (≈ 0.74 µM)
Escherichia coli 1507E; [14]
  MIC: 0.391 µg/mL (≈ 0.74 µM)
[8]
  MIC: 25 µg/mL (≈ 47.3 µM)
[9]
  MIC: 0.195 µg/mL (≈ 0.369 µM)
Klebsiella oxytoca 1082E
  MIC: 3.12 µg/mL (≈ 5.91 µM)
Staphyloccus aureus 285
  MIC: 0.781 µg/mL (≈ 1.48 µM)
[10]
  MIC: 50 µg/mL (≈ 94.6 µM)
Enterobacter cloacae P99
  MIC: > 100 µg/mL
[11]
  MIC: 12.5 µg/mL (≈ 23.6 µM)
[12]
  MIC: 0.781 µg/mL (≈ 1.48 µM)
Escherichia coli DC 2
  MIC: 0.391 µg/mL (≈ 0.74 µM)

## CO/N=C(\C(=O)N[C@@H]1C(=O)N2C(C(=O)[O-])=C(CN3CC[N+](C)(N)CC3)CS[C@H]12)c1csc(N)n1 [Example 11, (6R,7R)-7-[(Z)-2-(2-aminothiazol-4-yl)-2-methoxyiminoacetamido]-3-[(1-amino-1-methyl-4-piperazinium)methyl]-ceph-3-em-4-carboxylate]
Escherichia coli DC O; Escherichia coli, 18 h
  MIC: 0.781 µg/mL (≈ 1.53 µM)
Salmonella typhimurium
  MIC: 0.391 µg/mL (≈ 0.766 µM)
[1]
  MIC: 0.391 µg/mL (≈ 0.766 µM)
[2]
  MIC: 0.013 µg/mL (≈ 0.0255 µM)
[3]
  antibacterial activity (in words): excellent antibacterial activity
[4]
  MIC: > 100 µg/mL
Escherichia coli O 55; [15]
  MIC: 0.195 µg/mL (≈ 0.382 µM)
[5]
  MIC: 1.56 µg/mL (≈ 3.06 µM)
[6]
  MIC: 0.007 µg/mL (≈ 0.0137 µM)
[7]
  MIC: 0.781 µg/mL (≈ 1.53 µM)
Escherichia coli TEM
  MIC: 0.391 µg/mL (≈ 0.766 µM)
Escherichia coli 1507E; [14]
  MIC: 0.781 µg/mL (≈ 1.53 µM)
[8]
  MIC: 50 µg/mL (≈ 97.9 µM)
[9]
  MIC: 0.195 µg/mL (≈ 0.382 µM)
Klebsiella oxytoca 1082E
  MIC: 6.25 µg/mL (≈ 12.2 µM)
Staphyloccus aureus 285
  MIC: 12.5 µg/mL (≈ 24.5 µM)
[10]
  MIC: 50 µg/mL (≈ 97.9 µM)
Enterobacter cloacae P99
  MIC: 100 µg/mL (≈ 196 µM)
[11]
  MIC: 25 µg/mL (≈ 49 µM)
[12]
  MIC: 1.56 µg/mL (≈ 3.06 µM)
Escherichia coli DC 2
  MIC: 0.781 µg/mL (≈ 1.53 µM)
